Measured values published in PubChem BioAssay AID1963445 (Molecular Pharmacology Branch, DTP, NCI, 2024).

Tested on: MCF7 complex spheroid growth, % test/control
Assay: Anticancer human tumor MCF7 cell line growth inhibition [Asc];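 further: spheroids exposed to compounds for 7 days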;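 on viability, T/C: 100% = DMSO vehicle control wells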
Settings: for IC50: curve of first compound; for viability, T/C: stronger effect = lower value
Summary of the method: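 Complex solid-tumor spheroids incorporating human endothelial and mesenchymal stem cells received single agents or combinations over half-log dilution ranges anchored to clinical Cmax.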

Cc1nc(N2CCC3(CC2)COC(C)C3N)c(CO)nc1Sc1ccnc(N)c1Cl (centres undefined) + CNC(C)C(=O)NC1CN(S(=O)(=O)c2cccc(S(=O)(=O)N3CCC4CCC(C(=O)NC(c5ccccc5)c5ccccc5)N4C(=O)C(NC(=O)C(C)NC)C3)c2)CCC2CCC(C(=O)NC(c3ccccc3)c3ccccc3)N2C1=O
IC50 (second compound 0.00316 µM): < 0.00949 µM | IC50 (second compound 0.01 µM): < 0.00949 µM | IC50 (second compound 0.0316 µM): < 0.00949 µM | IC50 (second compound 0.1 µM): < 0.00949 µM | IC50 (second compound 0.316 µM): < 0.00949 µM | IC50 (second compound 1 µM): < 0.00949 µM | viability, T/C (second compound 0.00316 µM, first compound 0.00949 µM): 26.7% | viability, T/C (second compound 0.00316 µM, first compound 0.03 µM): 31.8% | viability, T/C (second compound 0.00316 µM, first compound 0.0949 µM): 19.9% | viability, T/C (second compound 0.00316 µM, first compound 0.3 µM): 17.6% | viability, T/C (second compound 0.00316 µM, first compound 0.949 µM): 10.6% | viability, T/C (second compound 0.00316 µM, first compound 3 µM): 10.9% | viability, T/C (second compound 0.01 µM, first compound 0.00949 µM): 15.9% | viability, T/C (second compound 0.01 µM, first compound 0.03 µM): 11.2% | viability, T/C (second compound 0.01 µM, first compound 0.0949 µM): 10.3% | viability, T/C (second compound 0.01 µM, first compound 0.3 µM): 13% | viability, T/C (second compound 0.01 µM, first compound 0.949 µM): 11.4% | viability, T/C (second compound 0.01 µM, first compound 3 µM): 11.1% | viability, T/C (second compound 0.0316 µM, first compound 0.00949 µM): 12.7% | viability, T/C (second compound 0.0316 µM, first compound 0.03 µM): 10.7% | viability, T/C (second compound 0.0316 µM, first compound 0.0949 µM): 12.2% | viability, T/C (second compound 0.0316 µM, first compound 0.3 µM): 11.9% | viability, T/C (second compound 0.0316 µM, first compound 0.949 µM): 11.3% | viability, T/C (second compound 0.0316 µM, first compound 3 µM): 9.37% | viability, T/C (second compound 0.1 µM, first compound 0.00949 µM): 10.1% | viability, T/C (second compound 0.1 µM, first compound 0.03 µM): 12.7% | viability, T/C (second compound 0.1 µM, first compound 0.0949 µM): 11.3% | viability, T/C (second compound 0.1 µM, first compound 0.3 µM): 10.4% | viability, T/C (second compound 0.1 µM, first compound 0.949 µM): 10.6% | viability, T/C (second compound 0.1 µM, first compound 3 µM): 10.1% | viability, T/C (second compound 0.316 µM, first compound 0.00949 µM): 13.9% | viability, T/C (second compound 0.316 µM, first compound 0.03 µM): 12.2% | viability, T/C (second compound 0.316 µM, first compound 0.0949 µM): 11.5% | viability, T/C (second compound 0.316 µM, first compound 0.3 µM): 11.6% | viability, T/C (second compound 0.316 µM, first compound 0.949 µM): 12.3% | viability, T/C (second compound 0.316 µM, first compound 3 µM): 12% | viability, T/C (second compound 1 µM, first compound 0.00949 µM): 13.6% | viability, T/C (second compound 1 µM, first compound 0.03 µM): 12.7% | viability, T/C (second compound 1 µM, first compound 0.0949 µM): 14.2% | viability, T/C (second compound 1 µM, first compound 0.3 µM): 11.9% | viability, T/C (second compound 1 µM, first compound 0.949 µM): 12.6% | viability, T/C (second compound 1 µM, first compound 3 µM): 11.9%

O=C(c1cc(Cc2n[nH]c(=O)c3ccccc23)ccc1F)N1CCN(C(=O)C2CC2)CC1 + Cc1c(S(C)(=O)=O)c(-c2cc(F)cc(N3CCN(c4ccc(NS(=O)(=O)c5ccc(NC(CCN6CCC(C(=O)OCCCP(=O)(O)O)CC6)CSc6ccccc6)c(S(=O)(=O)C(F)(F)F)c5)cc4)CC3)c2)c(-c2ccc(Cl)cc2)n1C(C)C
IC50 (second compound 0.0316 µM): > 10 µM | IC50 (second compound 0.1 µM): > 10 µM | IC50 (second compound 0.316 µM): > 10 µM | IC50 (second compound 1 µM): 8.02 µM | IC50 (second compound 3.16 µM): 7.13 µM | IC50 (second compound 10 µM): 8.47 µM | viability, T/C (second compound 0.0316 µM, first compound 0.0316 µM): 95.8% | viability, T/C (second compound 0.0316 µM, first compound 0.1 µM): 99.9% | viability, T/C (second compound 0.0316 µM, first compound 0.316 µM): 118% | viability, T/C (second compound 0.0316 µM, first compound 1 µM): 95.9% | viability, T/C (second compound 0.0316 µM, first compound 3.16 µM): 80.5% | viability, T/C (second compound 0.0316 µM, first compound 10 µM): 54.3% | viability, T/C (second compound 0.1 µM, first compound 0.0316 µM): 117% | viability, T/C (second compound 0.1 µM, first compound 0.1 µM): 99.8% | viability, T/C (second compound 0.1 µM, first compound 0.316 µM): 87% | viability, T/C (second compound 0.1 µM, first compound 1 µM): 99.4% | viability, T/C (second compound 0.1 µM, first compound 3.16 µM): 84.5% | viability, T/C (second compound 0.1 µM, first compound 10 µM): 57.6% | viability, T/C (second compound 0.316 µM, first compound 0.0316 µM): 117% | viability, T/C (second compound 0.316 µM, first compound 0.1 µM): 109% | viability, T/C (second compound 0.316 µM, first compound 0.316 µM): 101% | viability, T/C (second compound 0.316 µM, first compound 1 µM): 93.7% | viability, T/C (second compound 0.316 µM, first compound 3.16 µM): 72.8% | viability, T/C (second compound 0.316 µM, first compound 10 µM): 52.5% | viability, T/C (second compound 1 µM, first compound 0.0316 µM): 119% | viability, T/C (second compound 1 µM, first compound 0.1 µM): 107% | viability, T/C (second compound 1 µM, first compound 0.316 µM): 91.9% | viability, T/C (second compound 1 µM, first compound 1 µM): 105% | viability, T/C (second compound 1 µM, first compound 3.16 µM): 88.9% | viability, T/C (second compound 1 µM, first compound 10 µM): 40.4% | viability, T/C (second compound 3.16 µM, first compound 0.0316 µM): 108% | viability, T/C (second compound 3.16 µM, first compound 0.1 µM): 72.5% | viability, T/C (second compound 3.16 µM, first compound 0.316 µM): 79.1% | viability, T/C (second compound 3.16 µM, first compound 1 µM): 93.6% | viability, T/C (second compound 3.16 µM, first compound 3.16 µM): 68.2% | viability, T/C (second compound 3.16 µM, first compound 10 µM): 42.4% | viability, T/C (second compound 10 µM, first compound 0.0316 µM): 82.6% | viability, T/C (second compound 10 µM, first compound 0.1 µM): 84.4% | viability, T/C (second compound 10 µM, first compound 0.316 µM): 74.6% | viability, T/C (second compound 10 µM, first compound 1 µM): 86.9% | viability, T/C (second compound 10 µM, first compound 3.16 µM): 76.3% | viability, T/C (second compound 10 µM, first compound 10 µM): 45.4%
